Reference: the supplement of paper PMC10307832

How the values were obtained:
Assay in all cases: relative viability (nuclei count vs DMSO), 5 days (fraction); higher = more cells survive
[1] = compound: Cc1ccc(-n2nc(C(C)(C)C)cc2NC(=O)Nc2ccc(OCCN3CCOCC3)c3ccccc23)cc1 [Doramapimod] + O=C(c1cc(Cc2n[nH]c(=O)c3ccccc23)ccc1F)N1CCN(C(=O)C2CC2)CC1 [Olaparib] (partner 8 µM)
Procedure, shortened: (§1)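 Cells from lung cancer lines were seeded into 1536-well plates and, one day later, dosed by pin tool. Treatments were either a single drug or a fixed dose of an anchor drug with five library-drug doses (not always all listed) in √10 steps. After 5 days, nuclei were stained in a one-step fixation (final 0.05% Triton X-100, 1% formaldehyde, 1 ug/ml Hoechst) and counted on 4× images, and relative viability is the treated-to-vehicle nuclei ratio, as the median of duplicate plates.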

[2] = compound: C1=CC=C2C(=C1)C=CC(=C2SSC3=C(C=CC4=CC=CC=C43)O)O [IPA-3] + CC(=O)Nc1cccc(-n2c(=O)n(C3CC3)c(=O)c3c(Nc4ccc(I)cc4F)n(C)c(=O)c(C)c32)c1 [Trametinib] (partner 0.02 µM)
Procedure, shortened: as §1

[3] = compound: Cc1ccc(-n2nc(C(C)(C)C)cc2NC(=O)Nc2ccc(OCCN3CCOCC3)c3ccccc23)cc1 [Doramapimod] + CS(=O)(=O)N1CCN(Cc2cc3nc(-c4cccc5[nH]ncc45)nc(N4CCOCC4)c3s2)CC1 [Pictilisib] (partner 1 µM)
Procedure, shortened: as §1

[4] = compound: C1=CC=C2C(=C1)C=CC(=C2SSC3=C(C=CC4=CC=CC=C43)O)O [IPA-3] + C[C@@H](Oc1cc(-c2cnn(C3CCNCC3)c2)cnc1N)c1c(Cl)ccc(F)c1Cl [Crizotinib] (partner 1 µM)
Procedure, shortened: as §1

Cell Line	relative viability ([1]; first compound 0.02 µM)	relative viability ([1]; first compound 0.06325 µM)	relative viability ([1]; first compound 0.2 µM)	relative viability ([1]; first compound 0.6325 µM)	relative viability ([1]; first compound 2 µM)	relative viability ([2]; first compound 0.2 µM)	relative viability ([2]; first compound 0.6325 µM)	relative viability ([2]; first compound 2 µM)	relative viability ([2]; first compound 6.325 µM)	relative viability ([2]; first compound 20 µM)	relative viability ([3]; first compound 0.02 µM)	relative viability ([3]; first compound 0.06325 µM)	relative viability ([3]; first compound 0.2 µM)	relative viability ([3]; first compound 0.6325 µM)	relative viability ([3]; first compound 2 µM)	relative viability ([4]; first compound 0.2 µM)	relative viability ([4]; first compound 2 µM)	relative viability ([4]; first compound 6.325 µM)	relative viability ([4]; first compound 20 µM)	relative viability ([4]; first compound 0.6325 µM)
SK-LU-1	0.487	0.43	0.39	0.503	0.388	0.585	0.474	0.506	0.467	0.571	0.511	0.627	0.657	0.726	0.603	1.27	0.929	0.823	0.89	–
LOU-NH91	0.987	0.929	0.902	1	0.737	0.79	0.757	0.805	0.779	0.852	0.582	0.524	0.493	0.524	0.406	0.723	0.809	0.728	0.801	0.757
LXF-289	1.03	1.01	1.05	1.08	1.02	0.714	0.646	0.668	0.662	0.762	0.776	0.76	0.695	0.716	0.662	0.828	0.811	0.829	0.86	0.764
NCI-H1299	0.97	0.963	0.834	0.864	0.803	–	–	–	–	–	0.769	0.444	0.751	0.597	0.521	0.974	0.96	0.928	0.961	0.935
HARA	0.741	0.709	0.839	0.835	0.76	0.884	0.899	0.63	0.591	1.02	0.281	0.347	0.273	0.503	0.302	1.21	1.09	1.14	1.24	1.22
LU99A	0.273	0.304	0.27	0.259	0.256	0.608	0.551	0.502	0.553	0.514	0.348	0.303	0.311	0.307	0.263	0.635	0.615	0.517	0.533	0.529
201T	0.869	1.01	0.848	0.96	0.839	0.73	0.679	0.714	0.744	0.786	0.696	0.662	0.668	0.863	0.609	1.04	1.05	1.03	1.04	1.01
HCC-827	0.766	0.596	0.6	0.679	0.396	0.553	0.518	0.585	0.597	0.675	1.15	0.972	1.06	0.933	0.738	0.927	0.865	0.873	0.859	0.89
NCI-H1666	0.844	0.743	0.751	0.775	0.748	0.902	0.855	0.886	0.924	0.884	0.502	0.397	0.37	0.369	0.312	1.1	1.07	1.15	0.799	1.04
NCI-H1915	0.285	0.287	0.252	0.254	0.233	0.301	0.271	0.286	0.295	0.318	0.945	0.932	0.989	0.87	0.785	1.02	0.923	0.867	0.949	0.905
NCI-H2009	0.669	0.697	0.669	0.712	0.622	0.307	0.266	0.245	0.279	0.241	0.812	0.656	0.826	0.395	0.823	1.12	1.04	0.915	0.924	1
ChaGo-K-1	0.472	0.423	0.438	0.379	0.398	0.979	0.886	0.917	0.884	1	0.805	0.888	0.96	–	0.688	1.32	1.17	1.09	1.23	1.08
COR-L 105	0.59	0.727	0.707	0.824	0.602	0.484	0.509	0.474	0.445	0.442	0.425	0.344	0.374	0.426	0.379	0.954	0.704	0.788	0.964	0.757
NCI-H2170	0.596	0.643	0.57	0.588	0.605	0.958	0.923	0.868	0.846	0.993	0.332	0.325	0.295	0.438	0.269	1.24	1.18	1.16	1.33	1.11
A549	0.376	0.3	0.299	0.3	0.269	–	–	–	–	–	0.533	0.492	0.522	0.497	0.421	0.886	0.745	0.819	0.89	0.76
SW 1573	0.446	0.425	0.456	0.546	0.433	0.67	0.546	0.46	0.532	0.271	0.448	0.375	0.408	0.423	0.379	0.802	0.933	0.872	0.811	0.814
NCI-H1975	0.717	0.85	0.864	0.768	0.82	0.328	0.325	0.331	0.424	0.323	0.324	0.32	0.315	0.373	0.294	1.21	0.968	0.883	0.952	0.896
Calu-6	0.589	0.6	0.622	0.554	0.557	–	–	–	–	–	0.89	0.891	0.91	0.997	0.844	1.06	0.81	0.795	0.966	0.75
SW 900	0.842	0.728	0.895	0.939	0.846	0.939	0.497	0.752	0.675	0.938	–	–	–	–	–	–	–	–	–	–

Cell Line	relative viability ([1]; first compound 0.02 µM)	relative viability ([1]; first compound 0.06325 µM)	relative viability ([1]; first compound 0.2 µM)	relative viability ([1]; first compound 0.6325 µM)	relative viability ([1]; first compound 2 µM)	relative viability ([2]; first compound 0.2 µM)	relative viability ([2]; first compound 0.6325 µM)	relative viability ([2]; first compound 2 µM)	relative viability ([2]; first compound 6.325 µM)	relative viability ([2]; first compound 20 µM)	relative viability ([3]; first compound 0.02 µM)	relative viability ([3]; first compound 0.06325 µM)	relative viability ([3]; first compound 0.2 µM)	relative viability ([3]; first compound 0.6325 µM)	relative viability ([3]; first compound 2 µM)	relative viability ([4]; first compound 0.2 µM)	relative viability ([4]; first compound 2 µM)	relative viability ([4]; first compound 6.325 µM)	relative viability ([4]; first compound 20 µM)	relative viability ([4]; first compound 0.6325 µM)
NCI-H3122	0.694	0.62	0.721	0.599	0.599	0.294	0.227	0.262	0.255	0.216	0.578	0.548	0.586	0.694	0.65	0.265	0.324	0.269	0.273	0.283
NCI-H2347	0.618	0.641	0.546	0.575	0.53	0.278	0.276	0.286	0.268	0.281	0.637	0.547	0.497	0.829	0.347	0.834	0.724	0.697	0.708	0.749
HCC-44	0.995	0.976	0.993	0.979	0.977	1.09	1.04	1.13	0.984	1.05	1.46	0.58	0.546	0.581	0.35	0.859	0.917	0.804	0.807	0.735
HCC-78	0.779	0.715	0.796	0.856	0.729	0.832	0.714	0.806	0.849	0.918	0.224	0.208	0.224	0.173	0.184	0.341	0.365	0.322	0.399	0.341
COR-L23	0.368	0.351	0.368	0.315	0.379	0.743	0.557	0.654	0.579	0.21	0.812	0.791	0.796	0.797	0.751	0.695	0.682	0.604	0.601	0.699
NCI-H1993	0.983	0.908	1.14	1.07	0.794	0.491	0.475	0.468	0.558	0.506	0.85	0.97	0.825	0.728	0.906	0.71	0.885	0.889	0.998	0.811
NCI-H2405	0.912	0.828	0.765	0.816	0.836	0.683	0.639	0.511	0.628	0.81	0.435	0.424	0.401	0.68	0.356	0.863	0.856	0.841	0.878	0.865
NCI-H2126	0.768	0.925	0.989	0.962	0.94	0.569	0.56	0.521	0.501	0.6	0.487	0.542	0.488	0.438	0.401	1.05	1.05	1.03	1.14	0.983
NCI-H1648	0.99	0.664	0.8	0.981	0.552	0.476	0.495	0.555	0.494	0.524	–	–	–	–	–	–	–	–	–	–
ABC-1	0.851	0.68	0.698	0.983	0.935	–	–	–	–	–	0.847	0.614	0.646	0.757	0.737	1.12	–	0.981	1.06	1.17
NCI-H1563	–	–	–	–	–	–	–	–	–	–	0.677	0.633	0.634	0.724	0.645	0.899	0.938	1.11	1.02	0.891
NCI-H2342	0.496	0.475	0.472	0.473	0.431	0.74	0.734	0.955	0.872	0.937	–	–	–	–	–	–	–	–	–	–
NCI-H1793	0.741	0.816	0.768	1.08	0.821	0.456	0.373	0.448	0.376	0.437	0.392	0.324	0.245	0.336	0.252	–	–	–	–	–
NCI-H522	0.582	0.669	0.696	0.604	0.608	0.828	0.792	0.822	0.875	0.711	–	–	–	–	–	–	–	–	–	–
EBC-1	0.664	0.69	0.689	0.675	0.558	–	–	–	–	–	0.355	0.279	0.363	0.355	0.247	0.188	0.168	0.195	0.193	0.186
IA-LM	0.797	0.81	0.724	0.708	0.875	–	–	–	–	–	0.176	0.257	–	0.343	0.288	1.25	0.904	0.553	0.555	0.683
NCI-H1703	0.533	0.513	0.384	0.38	0.31	–	–	–	–	–	0.234	0.226	0.236	0.248	0.215	0.819	0.757	0.669	0.469	0.593
NCI-H1395	0.463	0.462	0.466	0.498	0.421	1.02	1.03	1.04	1.05	1.13	0.567	0.599	0.601	0.624	0.545	–	–	–	–	–
